Here are results for seven compounds from BindingDB's records for doi:10.1016/j.bmcl.2009.08.023 (Roche Palo Alto, 2009).

What is called IC50 is the midpoint of a concentration-inhibition curve.

Molecules are shown by their SMILES.

The test has as its target Genome polyprotein (Hepatitis C virus genotype 1b (isolate Con1), UniProt Q9WMX2). The test is described as follows: Inhibition of […] 1b con1 NS5B polymerase assessed as [3H]UTP incorporation into acid insoluble RNA product.

Sequence of Genome polyprotein (Q9WMX2 2420-3010 limits assumed): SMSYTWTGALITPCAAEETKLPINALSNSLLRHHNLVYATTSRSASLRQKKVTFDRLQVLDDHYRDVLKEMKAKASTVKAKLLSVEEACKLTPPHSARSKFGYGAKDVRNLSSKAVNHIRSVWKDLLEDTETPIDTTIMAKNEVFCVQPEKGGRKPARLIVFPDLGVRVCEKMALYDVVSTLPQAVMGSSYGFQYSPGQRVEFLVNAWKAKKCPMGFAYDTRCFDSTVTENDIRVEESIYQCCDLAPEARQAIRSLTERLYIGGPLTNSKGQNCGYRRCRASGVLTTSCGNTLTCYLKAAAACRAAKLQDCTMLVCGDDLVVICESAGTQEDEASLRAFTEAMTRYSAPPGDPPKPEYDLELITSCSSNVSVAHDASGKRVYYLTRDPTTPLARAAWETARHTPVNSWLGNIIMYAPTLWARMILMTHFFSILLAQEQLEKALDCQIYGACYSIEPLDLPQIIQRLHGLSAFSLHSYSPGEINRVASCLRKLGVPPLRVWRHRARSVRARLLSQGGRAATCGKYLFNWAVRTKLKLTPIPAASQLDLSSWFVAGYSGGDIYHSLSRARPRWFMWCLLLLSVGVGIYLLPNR

`CC(C)(C)[C@H]1C(=O)C(C2=Nc3ccc(NS(C)(=O)=O)cc3S(=O)(=O)C2)C(=O)N1Cc1ccc(F)cc1F` (stereo partly drawn) [N-{3-[(S)-5-tert-Butyl-1-(2,4-difluoro-benzyl)-4-hydroxy-2-oxo-2,5-dihydro-1H-pyrrol-3-yl]-1,1-dioxo-1,4-dihydro-1lambda*6*-benzo[1,4]thiazin-7-yl}-methanesulfonamide]: the IC50 came to 13 nM. On to `CC(C)(C)CCN1C(=O)C(C2=Nc3ccc(NS(C)(=O)=O)cc3S(=O)(=O)C2)C(=O)[C@@H]1C(C)(C)C` (stereo partly drawn) [N-{3-[(S)-5-tert-Butyl-1-(3,3-dimethyl-butyl)-4-hydroxy-2-oxo-2,5-dihydro-1H-pyrrol-3-yl]-1,1-dioxo-1,4-dihydro-1lambda*6*-benzo[1,4]thiazin-7-yl}-methanesulfonamide], for which the half-inhibitory concentration (IC50) worked out at 8 nM. With `CC(C)(C)[C@H]1C(=O)C(C2=Nc3ccc(NS(C)(=O)=O)cc3S(=O)(=O)C2)C(=O)N1Cc1ccc(F)c(Cl)c1` (stereo partly drawn) [N-{3-[(S)-5-tert-Butyl-1-(3-chloro-4-fluoro-benzyl)-4-hydroxy-2-oxo-2,5-dihydro-1H-pyrrol-3-yl]-1,1-dioxo-1,4-dihydro-1lambda*6*-benzo[1,4]thiazin-7-yl}-methanesulfonamide], the IC50 was found to be 5 nM.

In the case of `COc1cc(CN2C(=O)C(C3=Nc4ccc(NS(C)(=O)=O)cc4S(=O)(=O)C3)C(=O)[C@@H]2C(C)(C)C)ccc1F` (stereo partly drawn) [N-{3-[(S)-5-tert-Butyl-1-(4-fluoro-3-methoxy-benzyl)-4-hydroxy-2-oxo-2,5-dihydro-1H-pyrrol-3-yl]-1,1-dioxo-1,4-dihydro-1lambda*6*-benzo[1,4]thiazin-7-yl}-methanesulfonamide], the half-maximal inhibitory concentration (IC50) came out at 4 nM.

Take `CC(C)CCN1C(=O)C(C2=Nc3ccc(NS(C)(=O)=O)cc3S(=O)(=O)C2)C(=O)[C@@H]1C(C)(C)C` (stereo partly drawn) [N-{3-[(S)-5-tert-Butyl-4-hydroxy-1-(3-methyl-butyl)-2-oxo-2,5-dihydro-1H-pyrrol-3-yl]-1,1-dioxo-1,4-dihydro-1lambda*6*-benzo[1,4]thiazin-7-yl}-methanesulfonamide]: the 50% inhibitory concentration (IC50) was 5 nM.

On to `CC(C)(C)[C@H]1C(=O)C(C2=Nc3ccc(NS(C)(=O)=O)cc3S(=O)(=O)C2)C(=O)N1Cc1ccccc1` (stereo partly drawn) [N-[3-((S)-1-Benzyl-5-tert-butyl-4-hydroxy-2-oxo-2,5-dihydro-1H-pyrrol-3-yl)-1,1-dioxo-1,4-dihydro-1lambda*6*-benzo[1,4]thiazin-7-yl]-methanesulfonamide], for which the IC50 came out at 8 nM.

As to `CC(=O)C1C(C2C(=O)[C@H](C(C)(C)C)N(Cc3ccc(F)cc3)C2=O)=Nc2ccc(NS(C)(=O)=O)cc2S1(=O)=O` (stereo partly drawn) [N-{2-Acetyl-3-[(S)-5-tert-butyl-1-(4-fluoro-benzyl)-4-hydroxy-2-oxo-2,5-dihydro-1H-pyrrol-3-yl]-1,1-dioxo-1,4-dihydro-1lambda*6*-benzo[1,4]thiazin-7-yl}-methanesulfonamide], the 50% inhibitory concentration (IC50) was 4 nM.
